± gives the standard deviation of the averaged measurements.
What was measured:
Details in all cases: treatment time: 3 days
[1] = tested on: UT-SCC-24A; experiment: drug sensitivity score (DSS); higher = more sensitive
Procedure: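 HNSCC cell lines (500 cells/well, 384-well) were cultured on plastic, on top of (2D) or embedded (3D) in Matrigel or human leiomyoma matrix Myogel (500 ug/mL; Myogel 3D mixed with rat collagen I). Cells were treated for 3 days with 5 ten-fold concentrations of each drug, and viability was read by CellTiter-Glo. Suffixes _1/_2/_3 on drug names are replicates.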

[2] = tested on: UT-SCC-106A; experiment: maximal % inhibition of viability relative to DMSO; higher = stronger effect
How it was run: (§1)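 Three growth formats were used for HPV-negative HNSCC cell lines in 384-well plates at 500 cells/well: bare plastic, wells coated with Matrigel or Myogel (500 µg/mL), and embedding in Matrigel or Myogel plus rat collagen I. Compounds were added at five 10-fold concentrations, and after 3 days CellTiter-Glo 2.0 luminescence was recorded and normalised to vehicle (0.1% DMSO) and cell-killing control wells. IC50, maximal inhibition and drug sensitivity score came from percent-inhibition dose–response fitting in the FIMM pipeline.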

[3] = tested on: UT-SCC-14; experiment: as above
How it was run: as §1

[4] = tested on: UT-SCC-28; experiment: as above
How it was run: as §1

[5] = tested on: UT-SCC-24A; experiment: maximal % inhibition of viability relative to DMSO; higher = stronger effect
Procedure: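 HNSCC cell lines (500 cells/well, 384-well) were cultured on plastic, on top of (2D) or embedded (3D) in Matrigel or human leiomyoma matrix Myogel (500 ug/mL; Myogel 3D mixed with rat collagen I). Cells were treated for 3 days with 5 ten-fold concentrations of each drug, and viability was read by CellTiter-Glo. Viability was normalised to DMSO (0% inhibition) and 100 uM benzethonium chloride (100% inhibition) controls and fitted with the FIMM DSRT pipeline to give IC50 (nM), maximal % inhibition and the drug sensitivity score (DSS). Suffixes _1/_2/_3 on drug names are replicates.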

[6] = tested on: UT-SCC-106A; experiment: drug sensitivity score (DSS); higher = more sensitive; extreme values may be limits of the assay
How it was run: as §1

[7] = tested on: UT-SCC-14; experiment: as above
How it was run: as §1

[8] = tested on: UT-SCC-24B; experiment: as above
How it was run: as §1

[9] = culture condition: embedded in Matrigel
[10] = culture condition: embedded in Myogel + collagen I
[11] = culture condition: on top of Matrigel
[12] = culture condition: on top of Myogel
[13] = culture condition: plastic 2D (no matrix)

Work on `Cn1cnc2c(F)c(Nc3ccc(Br)cc3F)c(C(=O)NOCCO)cc21` [Binimetinib] yielded a drug sensitivity score [1, 9] of 24.4 ± 3.8 DSS, a drug sensitivity score [1, 10] of 9.83 ± 4.3 DSS and a drug sensitivity score [1, 11] of 19.9 ± 0.72 DSS. For the same compound, the drug sensitivity score [1, 12] was 6.9 ± 0.85 DSS, the drug sensitivity score [1, 13] was 18.1 ± 0.64 DSS and the “maximal % inhibition of viability” value [2, 9] was 48.3 ± 3.9%. For the same compound, the “maximal % inhibition of viability” value [2, 10] was 16.4 ± 2.9%, the “maximal % inhibition of viability” value [2, 11] was 60.1 ± 2.9% and the “maximal % inhibition of viability” value [2, 12] was 20.6 ± 2.3%. The “maximal % inhibition of viability” value [2, 13] was 62.2 ± 1.8%, the “maximal % inhibition of viability” value [3, 9] was 29.8 ± 10% and the “maximal % inhibition of viability” value [3, 10] was 33.8 ± 15%. The “maximal % inhibition of viability” value [3, 11] was 33.3 ± 9.7%, the “maximal % inhibition of viability” value [3, 12] was 32.4 ± 24% and the “maximal % inhibition of viability” value [3, 13] was 25.9 ± 25%. The “maximal % inhibition of viability” value [4, 9] was 38.5 ± 2.6%, the “maximal % inhibition of viability” value [4, 10] was 12.5 ± 11% and the “maximal % inhibition of viability” value [4, 11] was 31.2 ± 2.9%. For the same compound, the “maximal % inhibition of viability” value [4, 13] was 21.9 ± 6.2%, the “maximal % inhibition of viability” value [5, 9] was 79.6 ± 1.9% and the “maximal % inhibition of viability” value [5, 10] was 37 ± 7.2%. For the same compound, the “maximal % inhibition of viability” value [5, 11] was 72.5 ± 1.2%, the “maximal % inhibition of viability” value [5, 12] was 35.6 ± 4.6% and the “maximal % inhibition of viability” value [5, 13] was 68.3 ± 1.5%. For the same compound, the drug sensitivity score [6, 9] was 11.8 ± 0.81 DSS, the drug sensitivity score [6, 10] was 0.567 ± 0.9 DSS and the drug sensitivity score [6, 11] was 12.8 ± 2.5 DSS. It also gave a drug sensitivity score [6, 12] of 1.67 ± 0.47 DSS, a drug sensitivity score [6, 13] of 11.7 ± 0.51 DSS and a drug sensitivity score [7, 9] of 6 ± 4.4 DSS. It also gave a drug sensitivity score [7, 10] of 4.73 ± 3.5 DSS, a drug sensitivity score [7, 11] of 5.1 ± 3.6 DSS and a drug sensitivity score [7, 12] of 4.27 ± 4.4 DSS. For the same compound, the drug sensitivity score [7, 13] was 2.27 ± 2 DSS, the drug sensitivity score [8, 9] was 6.43 ± 1 DSS and the drug sensitivity score [8, 10] was 6.03 ± 2.4 DSS. For the same compound, the drug sensitivity score [8, 11] was 5.6 ± 0.53 DSS and the drug sensitivity score [8, 12] was 2.7 ± 0.61 DSS.
